Common to all, as to type: cell-based
The test system of data set [1] is HT-29 (colorectal adenocarcinoma). The experiment in a line: MTT viability assay, HT-29. The settings on record: HT-29, 72 h, MTT; for CC50: read-out: LC50 (the source's name). The procedure: (§1) The novel compounds were tested against a panel of different cancer lines: PC-3 (prostate adenocarcinoma), MCF7 (mammary adenocarcinoma), HTB-54 (lung carcinoma), K-562 (chronic myelogenous leukemia) and HT-29 (colorectal adenocarcinoma). Two non-malignant cell lines, BEAS-2B (bronchial epithelial) and 184B5 (mammary epithelial) were also included to evaluate the toxicity of the novel synthesized compounds. The antiproliferative activity was measured with the [3-(4,5-dimethylthiazol-2-yl)-2,5-diphenyltetrazolium bromide] (MTT) assay after 72 h treatment. Six concentrations ranging from 0.1 to 100 μM were tested. MSA is largely known as the main CH3SeH putative precursor and was therefore included as positive control. The following parameters were calculated: GI50 (concentration which reduces the growth by 50%), TGI (concentration completely inhibiting growth) and LC50 (concentration that kills 50% of the cells).
(§2) All cells were purchased from the American Type Culture Collection (ATCC, Barcelona, Spain). HT-29 (colorectal adenocarcinoma), HTB-54 (grade III lung carcinoma), MCF7 (mammary adenocarcinoma), PC-3 (grade IV prostate adenocarcinoma) and K-562 (chronic myelogenous leukemia) were cultured in RPMI (Gibco, Madrid, Spain), 10% FBS (Gibco), 100 units/mL penicillin and 100 μg/mL streptomycin (Gibco). BEAS-2B cell line (normal epithelial lung) was cultured in DMEM (Gibco), 10% FBS, 100 units/mL penicillin and 100 μg/mL streptomycin. 184B5 (normal mammary gland) cell line was cultured in DMEM:F12 supplemented with 5% FBS, 1 × ITS (Lonza, Barcelona, Spain), 100 nM hydrocortisone (Sigma-Aldrich), 2 mM sodium pyruvate (Lonza), 20 ng/mL EGF (Sigma-Aldrich), 0.3 nM trans-retinoic acid (Sigma-Aldrich), 100 units/mL penicillin and 100 µg/mL streptomycin. Cells were cultured at 37 °C under 5% CO2.
(§3) Cell viability after treatment was assessed by the well-known 3-(4,5-dimethyl-thiazol-2-yl)-2,5-diphenyltetrazolium bromide (MTT, Sigma-Aldrich) assay. Briefly, 10,000 cells were seeded in 96-well plates, treated and incubated for 72 h. Dilutions of the compounds in cell medium were freshly prepared from a 0.01 M stock in DMSO. After treatment, 50 μL of MTT solution in PBS (2 mg/mL) were added and cells were incubated for 4 h. Medium was removed and 150 μL of DMSO was added to dissolve the formed formazan crystals. Absorbance was read at 550 nm in a microplate absorbance reader (Sunrise, Tecan, Männedorf, Switzerland).
For orientation: Tetrazolium dyes change colour on reduction, which living cells bring about.

Data set [2] relates to K-562 (chronic myelogenous leukemia). As to the kind of experiment: MTT viability assay, K-562. The settings on record: K-562, 72 h, MTT; for CC50: read-out: LC50 (the source's name). The procedure: as §1, §2, §3
Data set [3] concerns BEAS-2B (non-malignant bronchial epithelial). As to the kind of experiment: MTT viability assay, BEAS-2B. The settings on record: BEAS-2B non-malignant, 72 h, MTT; for CC50: read-out: LC50 (the source's name). The procedure: as §1, §2, §3
The subject of data set [4] is 184B5 (non-malignant mammary epithelium). The experiment in a line: MTT viability assay, 184B5. The settings on record: 184B5 non-malignant, 72 h, MTT; for CC50: read-out: LC50 (the source's name). The procedure: as §1, §2, §3
Another data set concerns HTB-54 (lung carcinoma). As to the kind of experiment: MTT viability assay, HTB-54. The settings on record: HTB-54, 72 h, MTT; for CC50: read-out: LC50 (the source's name). The procedure: as §1, §2, §3
Data set [5] has as its system PC-3 (prostate adenocarcinoma). The experiment in a line: MTT viability assay, PC-3. The settings on record: PC-3, 72 h, MTT; for CC50: read-out: LC50 (the source's name). The procedure: as §1, §2, §3
The subject of data set [6] is MCF7 (mammary adenocarcinoma). The experiment in a line: MTT viability assay, MCF7. The settings on record: MCF7, 72 h, MTT; for CC50: read-out: LC50 (the source's name). The procedure: as §1, §2, §3

Values joined by “and” are separate entries in the source; they are usually repeats but may differ in a detail not shown here. Equal values may be shown once. A value given as a limit tells only on which side of the number the result lay.

What is called GI50 is the concentration giving 50% growth inhibition. A lower GI50 goes with greater sensitivity of the cells. One may read the TGI as the concentration giving total growth inhibition. The low end stands for more potent growth arrest, the high end for less potent growth arrest. As for “Methyl 2-phenyl-4-quinolinecarboselenoate [Compound 10]”, the GI50 amounted to 4.1 ± 0.3 µM in data set [1]; 9.7 ± 4.9 µM in data set [2]; 3.1 ± 0.5 µM in data set [3]; 3.9 ± 0.7 µM in data set [4]; 5.9 ± 1.1 µM in the data set on HTB-54 (lung carcinoma); 4.4 ± 1.3 µM in data set [5]. The same substance registered a GI50 in data set [6] of 5.6 ± 1.3 µM. The concentration for total growth inhibition (TGI) in data set [1] amounted to 7.5 ± 0.7 µM; in data set [2], 59.1 ± 3.5 µM; in data set [3] it was 5.5 ± 0.4 µM; in data set [4] it was 6.3 ± 0.5 µM; in the data set on HTB-54 (lung carcinoma) it was 16.7 ± 2.3 µM; in data set [6], 51.3 ± 3.7 µM. The CC50 in data set [1] is 35 ± 2.4 µM; in data set [2], greater than 100 µM; in data set [3] it was 7.8 ± 0.5 µM; in data set [4], 8.7 ± 0.4 µM; in the data set on HTB-54 (lung carcinoma), 64.4 ± 4.2 µM; in data set [5], 70.9 ± 5.2 µM. The CC50 in data set [6] is greater than 100 µM.
Consider “Dimethyl 5-cyano-1,3-benzenedicarboselenoate [Compound 14]”, for which the GI50 in data set [1] was found to be 3.8 ± 0.1 µM; in data set [2], 29.9 ± 0.6 µM; in data set [3] it was 3.2 ± 0.7 µM; in data set [4] it was 3.8 ± 0.7 µM; in the data set on HTB-54 (lung carcinoma), 3.8 ± 0.6 µM; in data set [5], 7.2 ± 3.5 µM. In addition, the GI50 in data set [6] is 4.9 ± 0.8 µM. Moreover, the TGI in data set [1] turned out to be 7.9 ± 0.7 µM; in data set [2], 54.7 ± 0.7 µM; in data set [3] it was 5.5 ± 0.5 µM; in data set [4], 6.5 ± 0.6 µM; in data set [5], 32.3 ± 3.7 µM; in data set [6], 8.4 ± 1.1 µM. The CC50 in data set [1] was greater than 100 µM; in data set [2] it was 79.5 ± 0.7 µM; in data set [3] it was 7.8 ± 0.3 µM; in data set [4] it was 9.3 ± 0.7 µM; in the data set with HTB-54 (lung carcinoma), 66.5 ± 4.5 µM; in data set [5], 68.7 ± 3 µM. Further, in data set [6], the CC50 worked out at 54.4 ± 2.7 µM.
Consider “Methyl 4-methoxybenzoselenoate [Compound 2]”, for which the GI50 in data set [1] worked out at 4.1 ± 0.1 µM; in data set [2], 40.8 ± 4.8 µM; in data set [3], 3.2 ± 0.5 µM; in data set [4], 3.7 ± 0.8 µM; in the data set with HTB-54 (lung carcinoma), 6.8 ± 1.7 µM; in data set [5], 7.3 ± 1.7 µM. Moreover, the GI50 in data set [6] came out at 4.1 ± 0.8 µM. The TGI in data set [1] came out at 7.5 ± 1.1 µM; in data set [2] it was 70.6 ± 5.9 µM; in data set [3], 5.8 ± 0.6 µM; in data set [4] it was 6.4 ± 1.5 µM; in the data set on HTB-54 (lung carcinoma), 29.7 ± 4.3 µM; in data set [5], 45.1 ± 4.5 µM. Also, the concentration for total growth inhibition (TGI) in data set [6] turned out to be 9.3 ± 4.1 µM. Moreover, the CC50 in data set [1] is 50 ± 2.4 µM; in data set [2], greater than 100 µM; in data set [3] it was 8.4 ± 1 µM; in data set [4], 9 ± 2.1 µM; in the data set with HTB-54 (lung carcinoma) it was 70 ± 2.9 µM; in data set [5] it was greater than 100 µM. In addition, the CC50 in data set [6] was 74.8 ± 4 µM.
In the case of “Methyl 9-acridinecarboselenoate [Compound 13]”, the GI50 came to 6 ± 0.5 µM in data set [1], 3.8 ± 0.1 µM in data set [3], 6.6 ± 1.2 µM in data set [4] and 4.2 ± 1.8 µM in data set [6]. Moreover, the TGI in data set [1] was 16.5 ± 1.9 µM; in data set [3] it was 6.4 ± 0.2 µM; in data set [4] it was 26.8 ± 1.0 µM; in data set [5], greater than 100 µM; in data set [6], 35.4 ± 4.7 µM. The CC50 was 66.6 ± 0.1 µM in data set [1]; 8.9 ± 0.4 µM in data set [3]; 65 ± 4.5 µM in data set [4]; greater than 100 µM in data set [5]; 83.4 ± 4.1 µM in data set [6].
Consider “Methyl benzo[b]thiophene-2-carboselenoate [Compound 7]”, for which the GI50 is 3.7 ± 0.2 µM in data set [1]; 29.2 ± 4.4 µM in data set [2]; 3.9 ± 0.6 µM in data set [3]; 3.9 ± 1.2 µM in data set [4]; > 10 µM and 17.5 µM with HTB-54 (lung carcinoma); > 10 µM and 18.4 µM in data set [5]. In data set [6], this substance registered a GI50 of 6.9 ± 1.4 µM. Further, the TGI in data set [1] worked out at 7.4 ± 0.9 µM; in data set [2], 58.8 ± 1.5 µM; in data set [3] it was 6.8 ± 0.8 µM; in data set [4], 6.9 ± 1.7 µM; in the data set with HTB-54 (lung carcinoma), 55.4 ± 4.4 µM; in data set [5] it was 47.8 ± 3.9 µM. The total growth inhibition concentration (TGI) in data set [6] was found to be 61.6 ± 4.1 µM. Further, the CC50 in data set [1] turned out to be 41.8 ± 4.5 µM; in data set [2], 88.3 ± 3.3 µM; in data set [3], 9.8 ± 1.1 µM; in data set [4], 9.9 ± 0.8 µM; in the data set on HTB-54 (lung carcinoma) it was 93.4 ± 4.8 µM; in data set [5] it was 77.3 ± 4.5 µM. Moreover, in data set [6], the CC50 is greater than 100 µM.
As to “Methyl 2-thiophencarboselenoate [Compound 4]”, the GI50 in data set [1] worked out at 3.4 ± 0.2 µM; in data set [2], 40.6 ± 4.5 µM; in data set [3] it was 2.9 ± 0.3 µM; in data set [4], 3.6 ± 0.8 µM; in the data set with HTB-54 (lung carcinoma), 8.5 ± 3.1 µM; in data set [5], 5.2 ± 0.9 µM. For the same substance, the GI50 in data set [6] amounted to 5.3 ± 1.4 µM. Besides, the TGI was determined as 7.2 ± 1.2 µM in data set [1]; 74.6 ± 4.9 µM in data set [2]; 5.8 ± 0.7 µM in data set [3]; 7.2 ± 1.4 µM in data set [4]; 39.0 ± 3.1 µM in the data set on HTB-54 (lung carcinoma); 19.4 ± 3.6 µM in data set [5]. Besides, the TGI in data set [6] was 22.8 ± 3.8 µM. Moreover, the CC50 in data set [1] was 47.5 ± 3.2 µM; in data set [2] it was greater than 100 µM; in data set [3], 8.7 ± 2.1 µM; in data set [4], 27.9 ± 4.6 µM; in the data set with HTB-54 (lung carcinoma), 73.9 ± 4.1 µM; in data set [5], 62 ± 4.9 µM. The CC50 in data set [6] was 89.6 ± 4.1 µM.
For the substance “Methyl 2-(4-pyridyl)thiazole-4-carboselenoate [Compound 12]”, the GI50 in data set [1] was 5.1 ± 0.1 µM; in data set [2] it was 82 ± 4.4 µM; in data set [3], 3.7 ± 1.3 µM; in data set [4], 3.4 ± 0.3 µM; with HTB-54 (lung carcinoma), 9.8 ± 5.1 µM; in data set [5] it was > 10 µM and 16.9 µM. This substance displayed a GI50 in data set [6] of 4.4 ± 1 µM. In addition, the TGI in data set [1] is 14.2 ± 6.6 µM; in data set [2], greater than 100 µM; in data set [3] it was 6.4 ± 1.3 µM; in data set [4], 6.5 ± 0.8 µM; in the data set on HTB-54 (lung carcinoma) it was 44.9 ± 3.7 µM; in data set [5], 50.9 ± 4.9 µM. Moreover, the TGI in data set [6] stood at 8.1 ± 1.7 µM. Besides, the CC50 is greater than 100 µM in data set [1]; greater than 100 µM in data set [2]; 9.2 ± 1 µM in data set [3]; 9.6 ± 2.8 µM in data set [4]; 80.5 ± 3.5 µM with HTB-54 (lung carcinoma); 85 ± 4.7 µM in data set [5]. Besides, the CC50 in data set [6] was 56.2 ± 9.6 µM.
Turning to “Methyl 1,3-benzodioxole-5-carboselenoate [Compound 8]”, the GI50 was found to be 5.9 ± 0.8 µM in data set [1]; 29.7 ± 4.7 µM in data set [2]; 3.1 ± 0.3 µM in data set [3]; 3.7 ± 0.3 µM in data set [4]; 6 ± 0.9 µM in the data set with HTB-54 (lung carcinoma); 5.7 ± 1.6 µM in data set [5]. The substance further returned a GI50 in data set [6] of 4.6 ± 0.5 µM. Besides, the TGI came to 27.7 ± 4.5 µM in data set [1]; 62.6 ± 3.9 µM in data set [2]; 5.6 ± 0.6 µM in data set [3]; 6.4 ± 0.2 µM in data set [4]; 23.2 ± 2.6 µM in the data set with HTB-54 (lung carcinoma); 11.0 ± 3.1 µM in data set [5]. Besides, the TGI in data set [6] was 9.2 ± 1.3 µM. Moreover, the CC50 in data set [1] amounted to 81.1 ± 4 µM; in data set [2], 95.4 ± 4.9 µM; in data set [3], 8 ± 1.1 µM; in data set [4], 9 ± 0.4 µM; with HTB-54 (lung carcinoma), 77.1 ± 4.9 µM; in data set [5], 96 ± 4.7 µM. Besides, the CC50 in data set [6] turned out to be 68.7 ± 2.5 µM.
